This data set can be described thus: Measurement of porosity (KOPTRI). It is filed as physicochemical. The text has this: Porosity measurement for the samples prepared by the present applicant was requested from the Korea Polymer Testing & Research Institute (KOPTRI), an authorized international testing agency.

Take `O=P1(N(CCCl)CCCl)NCCCO1` (stereo not drawn) [Comparison 4, 2-[bis(2-chloroethyl)amino]tetrahydro-2H-1,3,2-oxazaphosphorin-2-oxide]: the Apparent density turned out to be 1.31 g/mL and the Porosity was determined as 5.24%. The Average diameter (pore size) was found to be 0.02 μm.

Source of the values: patent publication US20180104264A1, “Method for Preparing Lyophilized Organic Solvent-Free Cyclophosphamide” (KOREA UNITED PHARM. INC., priority 2016, published 2018).
